Test results as given in patent US20090162372A1, “FIBRONECTIN ED-B ANTIBODIES, CONJUGATES THEREOF, AND METHODS OF USE” (Medarex, Inc., priority 2007, published 2009).

Assays:
[1] = experimental animals; cited from earlier work
[2] = test system: LNCaP/prostate stroma coculture tumors; experiment: Efficacy against LNCaP/prostate stroma coculture tumors in SCID mice (tumor volume); type: in vivo, CB17.SCID mice; conditions: naked antibody 30 mg/kg IP SD on Day 0; to Day 62; FIG. 4
Description: In order to determine the efficacy of anti-RG-1 and ED-B-cytotoxin conjugates (using the cytotoxin/linker of formula (m)), LNCaP xenografts were performed as follows: 120 CB17.SCID mice were each subcutaneously injected with 2 million LNCaP cells and 1 million prostate stroma cells (cat# CC-2508, Cambrex Bio Science Walkersville, Inc, Walkersville, Md.) resuspended in 0.2 ml of PBS/Matrigel (1:1) (BD Bioscience) at the flank region. This LNCaP/Stroma model expresses high levels of PMSA on the cell surface, high levels of RG-1 in the stroma, and low levels of ED-B in the stroma. CD70 is used as an isotype control as the xenographs are negative for CD70. Mice were weighed and measured for tumors three dimensionally using an electronic caliper once weekly after implantation. Tumor volumes were calculated as height×width×length/2. Mice with tumors averaging 50 mm^3 were randomized into 16 treatment groups of seven mice on Day-1 and mice were treated intraperitoneally with vehicle, antibody, or antibody-cytotoxin conjugate according to the dosing regimen described in Table 1 on Day 0, Studies were terminated at Day 62.

Row | Molecule | delayed death [1] | effect on tumor growth (median tumor volume) [2]
1 | COc1c(O)c2c(c3cc(C(=O)N4CCc5c4c(O)c(OC)c4[nH]c(C(=O)N6CC7CC78C6=CC(=O)c6[nH]cc(C)c68)cc54)[nH]c13)CCN2C(N)=O (centres unmarked) [CC-1065] | causes delayed death in experimental animals | 
2 | anti-ED-B: human monoclonal antibody 1C5 binding fibronectin ED-B, VH SEQ ID NO: 7, VL SEQ ID NO: 8; naked antibody (antibody, listed as Homo sapiens, V domains shown) VH: EVQLVESGGGLVQPGGSLRLSCAASGFTFSSYSMNWVRQAPGKGLEWVSYISSSSRAIYYADSVKGRFTISRDNAKNSLYLQMNSLRDEDTAVYYCARARYFDWLWYYWGQGTLVTVSS VL: EIVLTQSPGTLSLSPGERATLSCRASQSVSSSYLAWYQQEPGQAPRLLIYGASSRATGIPDRFSGSGSGTDFTLTISRLEPEDFAVYYCQQRSNWPPTFGQGTKVEIK |  | no inhibitory effect on tumor growth
